According to PMC7006677 (Pharmacological reports : PR, 2020):

Experiments:
Format in all cases: cell-based
[1] = biological target: T1, GABAA receptor (α1β3γ2L), β3 subunit (Homo sapiens, UniProt P14867+P18507+P28472); assay: two-electrode voltage clamp
[2] = biological target: T1, GABAA receptor (α1β3γ2L), β3 subunit; assay: two-electrode voltage clamp; remark: listed apart in the source
[3] = biological target: T1, GABAA receptor (α1β3γ2L), β3 subunit; assay: two-electrode voltage clamp in oocytes

T1 sequence (P28472 26-473): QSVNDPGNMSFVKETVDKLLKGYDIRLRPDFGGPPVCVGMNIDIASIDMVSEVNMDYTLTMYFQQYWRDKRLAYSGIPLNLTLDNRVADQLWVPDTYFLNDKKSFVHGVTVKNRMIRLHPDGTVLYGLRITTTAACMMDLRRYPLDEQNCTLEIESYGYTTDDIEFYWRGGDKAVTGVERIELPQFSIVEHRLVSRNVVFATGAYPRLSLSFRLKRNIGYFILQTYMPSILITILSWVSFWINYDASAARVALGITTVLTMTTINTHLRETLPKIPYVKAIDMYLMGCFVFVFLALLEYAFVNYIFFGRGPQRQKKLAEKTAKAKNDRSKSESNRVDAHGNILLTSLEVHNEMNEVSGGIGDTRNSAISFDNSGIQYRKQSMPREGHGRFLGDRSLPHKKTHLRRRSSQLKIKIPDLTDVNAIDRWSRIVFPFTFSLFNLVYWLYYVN
T1 sequence (P14867 28-456): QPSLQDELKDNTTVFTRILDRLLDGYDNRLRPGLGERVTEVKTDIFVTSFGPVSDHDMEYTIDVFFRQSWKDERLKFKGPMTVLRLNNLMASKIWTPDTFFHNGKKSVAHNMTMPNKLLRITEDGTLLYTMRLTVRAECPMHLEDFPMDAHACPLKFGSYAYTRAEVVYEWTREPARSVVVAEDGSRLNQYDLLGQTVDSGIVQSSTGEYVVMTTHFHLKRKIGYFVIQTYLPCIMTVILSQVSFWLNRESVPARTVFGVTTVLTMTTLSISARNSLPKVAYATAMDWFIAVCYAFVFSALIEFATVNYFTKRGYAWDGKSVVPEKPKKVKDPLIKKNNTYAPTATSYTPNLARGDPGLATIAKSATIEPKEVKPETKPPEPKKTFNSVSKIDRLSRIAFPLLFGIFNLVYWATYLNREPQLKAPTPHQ
T1 sequence (P18507 40-475): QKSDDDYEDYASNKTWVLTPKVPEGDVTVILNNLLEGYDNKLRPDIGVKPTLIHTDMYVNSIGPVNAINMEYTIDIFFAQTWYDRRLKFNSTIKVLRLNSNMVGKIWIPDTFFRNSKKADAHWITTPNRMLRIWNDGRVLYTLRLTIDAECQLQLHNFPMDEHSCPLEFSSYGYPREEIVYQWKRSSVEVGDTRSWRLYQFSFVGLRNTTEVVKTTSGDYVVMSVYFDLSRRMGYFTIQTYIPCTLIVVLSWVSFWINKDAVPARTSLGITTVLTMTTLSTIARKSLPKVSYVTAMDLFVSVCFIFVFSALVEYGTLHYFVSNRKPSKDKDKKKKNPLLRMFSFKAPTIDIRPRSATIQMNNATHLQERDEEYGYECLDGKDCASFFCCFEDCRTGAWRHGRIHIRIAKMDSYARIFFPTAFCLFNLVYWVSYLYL

Row | Compound | two-electrode voltage clamp; potentiation of EC5 GABA currents, reversed by naph [1] | further results
1 | OCC(Cl)(Cl)Cl [2,2,2-Trichloroethanol] | ~ 2 mM | 
2 | CCOC(=O)Nc1ccc(NCc2c(C)cc(C)cc2C)cc1N [AA29504] | ~ 1 μM | 
3 | CC(=O)[C@H]1CC[C@H]2[C@@H]3CC[C@H]4C[C@H](O)CC[C@]4(C)[C@H]3C(=O)C[C@]12C [Alphaxalone] | ~ 2 μM | 
4 | FC(F)OC(Cl)C(F)(F)F (stereo not shown) [Isoflurane] | ~ 1.5 mM | 
5 | Cl/C(=C\n1cncn1)c1ccc(Cl)cc1Cl [Loreclezole] | ~ 10 μM | 
6 | NCc1cc(=O)[nH]o1 [Muscimol] |  | two-electrode voltage clamp; potentiation of EC5 GABA currents, not reversed by [2]: ~ 3 μM
7 | naphthalene-etomidate |  | IC50 [3]: 76 µM
